pIC50, pKi: −log10 of the molar value. Non-standard residues stand in square brackets, D forms with d. Residues, ends and D or L forms follow the SMILES beside them. *: point of attachment. Dip = N[C@H](C(=O)O)C(c1ccccc1)c1ccccc1; Hyp = O=C(O)[C@@H]1C[C@@H](O)CN1; Tic = O=C(O)[C@@H]1Cc2ccccc2CN1; X1 = O=C(O)C(=O)[C@H](CC(F)F)N*; Cha = N[C@@H](CC1CCCCC1)C(=O)O; Nle = CCCC[C@H](N)C(=O)O; Bn = c1ccc(C*)cc1

Genome polyprotein, sequence (P26664 2421-3011 limits assumed): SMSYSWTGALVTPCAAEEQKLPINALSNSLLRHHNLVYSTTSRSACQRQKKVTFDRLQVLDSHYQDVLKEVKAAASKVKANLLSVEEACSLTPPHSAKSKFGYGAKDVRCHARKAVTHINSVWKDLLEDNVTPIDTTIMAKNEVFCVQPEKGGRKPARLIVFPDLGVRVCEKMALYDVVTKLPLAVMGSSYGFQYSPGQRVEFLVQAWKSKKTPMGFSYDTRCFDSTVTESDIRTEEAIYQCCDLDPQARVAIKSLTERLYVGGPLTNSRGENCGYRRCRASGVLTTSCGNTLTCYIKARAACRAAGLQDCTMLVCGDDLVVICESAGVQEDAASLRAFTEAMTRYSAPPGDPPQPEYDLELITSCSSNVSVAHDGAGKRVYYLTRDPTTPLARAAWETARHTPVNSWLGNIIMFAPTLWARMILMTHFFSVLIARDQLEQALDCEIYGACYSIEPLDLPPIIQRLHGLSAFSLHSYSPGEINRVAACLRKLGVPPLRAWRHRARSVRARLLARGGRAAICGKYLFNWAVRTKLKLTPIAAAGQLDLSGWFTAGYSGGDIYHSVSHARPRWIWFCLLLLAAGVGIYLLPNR
T1 sequence (A3EZJ3 whole entry): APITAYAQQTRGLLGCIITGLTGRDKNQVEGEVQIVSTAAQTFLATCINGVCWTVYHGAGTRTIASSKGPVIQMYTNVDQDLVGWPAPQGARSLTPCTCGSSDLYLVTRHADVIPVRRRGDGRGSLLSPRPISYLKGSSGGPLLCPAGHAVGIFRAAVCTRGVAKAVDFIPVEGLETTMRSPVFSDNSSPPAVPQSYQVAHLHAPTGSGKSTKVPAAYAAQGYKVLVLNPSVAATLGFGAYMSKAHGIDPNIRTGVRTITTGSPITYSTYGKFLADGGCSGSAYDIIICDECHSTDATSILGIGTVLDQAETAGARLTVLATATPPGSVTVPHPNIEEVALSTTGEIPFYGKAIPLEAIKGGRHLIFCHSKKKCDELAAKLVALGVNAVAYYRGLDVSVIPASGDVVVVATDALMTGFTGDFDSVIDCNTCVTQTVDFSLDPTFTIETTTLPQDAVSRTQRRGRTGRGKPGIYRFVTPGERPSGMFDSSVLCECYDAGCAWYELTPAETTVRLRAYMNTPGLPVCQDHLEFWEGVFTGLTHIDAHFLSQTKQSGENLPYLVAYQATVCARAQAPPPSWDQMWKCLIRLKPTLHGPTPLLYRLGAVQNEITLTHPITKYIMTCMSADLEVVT

One assay concerns the target T1, NS3 (Hepatitis C virus, UniProt A3EZJ3). Briefly: Inhibitory concentration against hepatitis C virus helicase. On the set-up: species or system Hepacivirus hominis.
Conditions: not given
`CC(=O)O[C@H]1C(=O)[C@@]2(C)[C@H]([C@H](OC(=O)c3ccccc3)[C@]3(O)C[C@H](OC(=O)[C@H](O)[C@@H](NC(=O)c4ccccc4)c4ccccc4)C(C)=C1C3(C)C)[C@]1(OC(C)=O)CO[C@@H]1C[C@@H]2O` [PACLITAXEL] had a pIC50 of less than 6.00.
Same read-out and setting: then `c1cc(CN2CCC(C3=NC4CCCCC4N3)CC2)ccc1CN1CCC(C2=NC3CCCCC3N2)CC1` (stereo unspecified), with 5.15; and `Nc1nc(=O)c2c(ncn2COCCOCc2ccccc2)c(=O)[nH]1`, with 5.26.
Turning to `O=C(CCCCC(=O)Nc1ccc(-c2nc3ccccc3[nH]2)cc1)Nc1ccc(-c2nc3ccccc3[nH]2)cc1`, the negative-log IC50 (pIC50) is 6.15.
`Nc1nc(=O)c2c(ncn2C2O[C@H](CO)C(O)C2O)c(=O)[nH]1` (single isomer, unassigned) gave a pIC50 of 4.92.
In the case of `OC[C@H]1O[C@@H](n2nnc3cc(Cl)c(Cl)cc32)[C@H](O)[C@@H]1O`, the negative-log IC50 (pIC50) was 5.82.
`COc1cccc2c1C(=O)c1c(O)c3c(c(O)c1C2=O)C[C@@](O)(C(=O)CO)C[C@@H]3O[C@H]1C[C@H](N)[C@@H](O)[C@H](C)O1` [EPIRUBICIN] had a pIC50 of 6.12.
In turn, `NC(=O)c1ncn([C@@H]2O[C@H](COP(=O)(O)OP(=O)(O)O)[C@@H](O)[C@H]2O)n1` had a pIC50 of 3.60.
The compound `COC(=O)[C@@H]1c2cc3c(c(O)c2[C@@H](O[C@@H]2O[C@@H](C)[C@H](OC)[C@@](C)(OC)[C@H]2OC)C[C@]1(C)O)C(=O)c1c(O)cc2c(c1C3=O)O[C@@H]1O[C@@]2(C)[C@H](O)[C@@H](N(C)C)[C@@H]1O` [NOGALAMYCIN] had a pIC50 of 7.00.
`Brc1c(Br)c(Br)c2[nH]nnc2c1Br` [TETRABROMOBENZOTRIAZOLE] had a negative-log IC50 (pIC50) of 4.70.
With `NC(=O)c1ncn([C@@H]2O[C@H](CO[P@@](=O)(O)O[P@](=O)(O)OP(=O)(O)O)[C@@H](O)[C@H]2O)n1` [RTP], the pIC50 is 3.74.
The compound `N=c1nc(N)c2ncn([C@H]3O[C@@H](COP(=O)(O)OP(=O)(O)OP(=O)(O)O)[C@H](O)[C@@H]3O)c2c(N)n1` gave a negative-log IC50 (pIC50) of 6.26.
Compound `O=C1NNC(=O)c2c(ncn2[C@H]2O[C@@H](COP(=O)(O)OP(=O)(O)OP(=O)(O)O)[C@H](O)[C@@H]2O)N1` gave a pIC50 of 5.82.

Another assay addresses T1, NS3. Briefly: Inhibitory concentration against hepatitis C virus NS3 protease. On the set-up: species or system Hepacivirus hominis.
Conditions: not given
In turn, `CC(=O)OCCC/C(=C1/SC(=S)N(CC(=O)O)C1=O)c1ccc(Br)cc1` came in with a 50% inhibitory concentration (IC50) of 6.4 µg/mL.

Staying with this assay, now noted: read-out: IC50.
With `CC(=O)N[C@@H](CC(=O)O)C(=O)N[C@@H](CCC(=O)O)C(=O)N[C@@H](CC1CCCCC1)C(=O)N[C@H](C(=O)N1C[C@H](OCc2ccccc2)C[C@H]1C(=O)N[C@@H](CS)C(=O)O)C(C)C` (Ac-DE[Cha]V[Hyp](Bn)C-OH), the negative-log IC50 (pIC50) is 7.48.
On to `CCCC[C@H](NC(=O)[C@@H]1Cc2ccccc2CN1C(=O)[C@H](CS)NC(=O)[C@H](CC1CCCCC1)NC(=O)[C@@H](NC(=O)[C@@H](NC(=O)[C@H](CCC(=O)O)NC(=O)[C@H](CC(=O)O)NC(C)=O)C(c1ccccc1)c1ccccc1)[C@@H](C)CC)C(=O)N[C@@H](CO)C(=O)N[C@@H](Cc1ccc(O)cc1)C(N)=O` (Ac-DE[Dip]I[Cha]C[Tic][Nle]SY-NH2), for which the negative logarithm of the IC50 (pIC50) is 7.00.
Consider `CC(=O)N[C@@H](CC(=O)O)C(=O)N[C@@H](CCC(=O)O)C(=O)N[C@@H](CC1CCCCC1)C(=O)N[C@H](C(=O)N1C[C@@H](OCc2ccccc2)C[C@H]1C(=O)NC1(C(=O)O)CC1)C(C)C`, for which the negative logarithm of the IC50 (pIC50) was 7.29.
`CC[C@H](C)[C@H](NC(=O)OC(C)(C)C)C(=O)N[C@@H](CC(C)C)C(=O)N[C@@H](CC(F)F)C(=O)C(=O)O`: the negative logarithm of the IC50 (pIC50) was 6.00.
Take `O=C1C=C2C(=CCOC2O)O1` (stereo unspecified) [PATULIN]: the pIC50 was 5.42.
On to `O=C(Nc1cc(Cl)ccc1Oc1ccc2ccccc2c1Cl)c1cc(Cl)cc(Br)c1O`, for which the pIC50 is 5.21.
With Ac-DDIVPC-OH, the pIC50 is 4.15.
On the same count and under the same terms, to `CC[C@H](C)[C@H](NC(=O)[C@@H](NC(=O)[C@H](CCC(=O)O)NC(=O)[C@H](CC(=O)O)NC(C)=O)C(c1ccccc1)c1ccccc1)C(=O)N[C@@H](CC1CCCCC1)C(=O)N[C@@H](CS)C(=O)N1CCC[C@H]1C(=O)N[C@@H](CC1CCCCC1)C(=O)N[C@@H](CC(=O)O)C(=O)N[C@H](C(N)=O)C(C)C` (Ac-DE[Dip]I[Cha]CP[Cha]DV-NH2) belongs 5.89; to `CCCCCCCCCCCCCNC(=O)c1c(O)cc(O)c([N+](=O)[O-])c1O`, 5.24; to `CC(C)C[C@H](NC(=O)[C@H](CC(=O)O)NC(=O)[C@H](CC1CCCCC1)NC(=O)[C@@H]1CCCC[C@H]1C(=O)O)C(N)=O`, 4.82.
On the same count and under the same terms, then `CC[C@H](C)[C@H](NC(=O)OCc1ccccc1)C(=O)N[C@@H](CC(C)C)C(=O)N[C@@H](CC(F)F)C(=O)C(=O)O`, with 5.77.
Consider `CC(=O)OC1OCC=C2OC(=O)C=C21` (stereo unspecified), for which the negative-log IC50 (pIC50) was 5.14.
Take `COc1ccc2c(O[C@@H]3C[C@H]4C(=O)N[C@]5(C(=O)O)C[C@H]5/C=C\CCCCC[C@H](NC(=O)OC5CCCC5)C(=O)N4C3)cc(-c3csc(NC(C)C)n3)nc2c1` [CILUPREVIR]: the pIC50 was 5.52.
The same measure, in the same setting: to `CCCC[C@H](NC(=O)[C@@H]1CCCN1C(=O)[C@H](CS)NC(=O)[C@H](CC1CCCCC1)NC(=O)[C@@H](NC(=O)[C@@H](NC(=O)[C@H](CCC(=O)O)NC(=O)[C@H](CC(=O)O)NC(C)=O)C(c1ccccc1)c1ccccc1)[C@@H](C)CC)C(=O)N[C@@H](CC(=O)O)C(=O)N[C@H](C(N)=O)C(C)C` (Ac-DE[Dip]I[Cha]CP[Nle]DV-NH2) belongs 5.74; to `O=C1C=C2C(=CCOC2OC(=O)c2cccc(Br)c2)O1` (stereo unspecified), 4.90.
`O=C1NC(=S)S/C1=C/c1cc([N+](=O)[O-])ccc1Sc1ccc(Cl)cc1`: the pIC50 is 5.49.
With `C=C[C@H]1C[C@]1(NC(=O)[C@@H]1C[C@@H](Oc2cc(-c3ccccc3)nc3ccccc23)CN1C(=O)[C@@H](NC(=O)[C@@H](NC(C)=O)C1CCCCC1)C(C)C)C(=O)O`, the pIC50 is 7.89.
For the compound `CCCC[C@H](NC(=O)[C@@H]1Cc2ccccc2CN1C(=O)[C@H](CS)NC(=O)[C@H](CC(C)C)NC(=O)[C@@H](NC(=O)[C@@H](NC(=O)[C@H](CCC(=O)O)NC(=O)[C@H](CCC(=O)O)NC(C)=O)C(C)C)C(C)C)C(=O)N[C@@H](CO)C(=O)N[C@@H](Cc1ccc(O)cc1)C(N)=O` (Ac-EEVVLC[Tic][Nle]SY-NH2), the pIC50 is 6.00.
Regarding `CCCC(=O)c1cc2c(c(O)c1C)C(=O)C(=O)c1c(O)cccc1-2`, the pIC50 was 5.15.
Regarding `O=C(Nc1ccc(Oc2ccc(Cl)c3ccccc23)c(Cl)c1)c1cc(Cl)ccc1NS(=O)(=O)c1ccc(Cl)cc1`, the negative logarithm of the IC50 (pIC50) is 5.19.

A further assay deals with T1, NS3. Briefly: Inhibitory constant against hepatitis C virus NS3 protease. More on the design: species or system Hepacivirus hominis.
Conditions: not given
Compound `O=C(O)[C@H](Cc1ccccc1)N(Cc1cccc(C(F)(F)F)c1)C(=O)c1ccc(Cl)cc1Cl` gave a negative logarithm of the Ki (pKi) of 5.66.
`CC(=O)N[C@@H](CC(=O)O)C(=O)N[C@@H](CCC(=O)O)C(=O)N[C@H](C(=O)N[C@@H](CCC(=O)O)C(=O)N[C@@H](CC1CCCCC1)C(=O)N[C@@H](CC(F)F)C(=O)C(=O)O)C(c1ccccc1)c1ccccc1` (Ac-DE[Dip]E[Cha]-X1) had a negative-log Ki (pKi) of 8.00.
The compound `CC(=O)N[C@@H](CC(=O)O)C(=O)N[C@@H](CCC(=O)O)C(=O)N[C@H](C(=O)N[C@@H](CCC(=O)O)C(=O)N[C@@H](CC1CCCCC1)C(=O)N[C@@H](CS)C(=O)O)C(c1ccccc1)c1ccccc1` (Ac-DE[Dip]E[Cha]C-OH) gave a pKi of 7.40.
Same read-out and setting: to `O=C(O)[C@H](Cc1ccccc1)N(Cc1ccc(-c2cc3ccccc3o2)s1)C(=O)c1ccc(Cl)cc1Cl` belongs 5.66; to `CC(C)COC(=O)N[C@@H](CCC(=O)O)C(=O)N[C@@H](CC(C)C)C(=O)N[C@@H](CC(F)F)C(=O)NCCc1ccc(C(=O)O)cc1Cl`, 6.22.
Compound Ac-DEMEEC-OH showed a negative logarithm of the Ki (pKi) of 6.22.

The subject of the next assay is Internal ribosome entry site (IRES). Briefly: Inhibitory concentration against hepatitis C virus internal ribosomal entry site. Type of assay: nucleic-acid assay, Hepacivirus hominis.
Conditions: not given
With `CN(C)c1ccc(C(=O)c2ccc(N(C)C)cc2)cc1` [MICHLER'S KETONE], the pIC50 is less than 5.00.
Compound `CN(C)c1ccc2c(c1)Sc1cc(N(C)C)ccc1N2C(=O)c1ccccc1` had a pIC50 of less than 5.00.
In turn, `Nc1ccc2c(c1)NC(=O)c1cc(N)cnc1O2` gave a pIC50 of less than 5.00.
The same measure, in the same setting: to `Nc1ccc2nc3ccc(N)cc3[s+]c2c1` [THIONIN ACETATE] belongs 5.54; to `CN(C)c1ccc(Nc2ccc(N(C)C)cc2)cc1`, 5.66.
With `Nc1ccc(Nc2ccc(N)cc2)cc1`, the negative-log IC50 (pIC50) was less than 5.00.
In turn, `Nc1ccc2[nH]c3ccc(N)cc3c2c1` had a pIC50 of less than 5.00.
The compound `CCN(CC)c1ccc2[o+]c3cc(C)c(N)cc3nc2c1` showed a pIC50 of 6.00.
`Cc1cc2nc3ccc(N(C)C)cc3nc2cc1N` showed a pIC50 of 7.70.
In turn, `Nc1ccc2c(c1)Oc1ncc(N)cc1C(=O)N2` gave a pIC50 of less than 5.00.

The next assay addresses Genome polyprotein (Hepatitis C virus genotype 1a (isolate 1) (HCV), UniProt P26664). Briefly: Inhibitory concentration against hepatitis C virus polymerase. On the set-up: species or system Hepacivirus hominis.
Conditions: not given
`N#Cc1ccc(Br)cc1-c1cccc(C(=O)CC(=O)C(=O)O)c1` showed a negative-log IC50 (pIC50) of 7.00.
In the case of `O=C(O)C(=O)CC(=O)c1ccccc1`, the pIC50 is 5.24.
`N#Cc1c(Cl)cc(Cl)cc1-c1cccc(C(=O)CC(=O)C(=O)O)c1` showed a negative logarithm of the IC50 (pIC50) of 7.35.
The same measure, in the same setting: then `COc1ccc(CCNC(=O)c2ccc3c(c2)nc(-c2ccccn2)n3C2CCCCC2)cc1OC`, with 4.92.
The same measure, in the same setting: then `O=C(N[C@@H](Cc1c[nH]c2ccccc12)C(=O)O)c1ccc2c(c1)nc(-c1ccoc1)n2C1CCCCC1`, with greater than 6.00.
With `O=C(O)c1ccc2c(c1)nc(-c1ccccn1)n2C1CCCCC1`, the negative logarithm of the IC50 (pIC50) is 5.37.
Compound `N#Cc1c(Cl)cccc1-c1cccc(C(=O)CC(=O)C(=O)O)c1` gave a negative logarithm of the IC50 (pIC50) of 6.96.
`CC(C)CCn1c(=O)c(C2=NS(=O)(=O)c3ccccc3N2)c(O)c2ccccc21` had a pIC50 of 6.10.
In the case of `N#Cc1ccc(Br)cc1Oc1ccccc1C(=O)CC(=O)C(=O)O`, the pIC50 is 6.46.
Still for that read-out and setting: then `O=C(O)c1ccc2c(c1)nc(-c1ccc(OCc3cc(C(=O)N4CCC(O)CC4)ccc3-c3ccc(Cl)cc3)cc1F)n2C1CCCCC1`, with greater than 5.00; and `O=C(NCc1ccccc1Cl)Nc1ccsc1-c1nc(O)c(O)c(C(=O)O)n1`, with 7.00.

For the origin of these results see ChEMBL document CHEMBL1145280, “Control of hepatitis C: a medicinal chemistry perspective” (J Med Chem, 2005).
